# Measurements: PubChem BioAssay (NCI)
#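 Five compound concentrations were applied to cells in 96-well plates for 48 hours; endpoints were derived by simple linear interpolation of the resulting dose-response curve. GI50: concentration for 50% inhibition of growth. The concentration for full growth arrest is given as TGI.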
# How the values were obtained:
# Test in all cases: NCI tumour cell line growth inhibition, 48 h
# U251 CNS = tested on: U251 CNS
# MCF7 breast = tested on: MCF7 breast
# OVCAR-8 ovarian = tested on: OVCAR-8 ovarian
# EKVX NSCLC = tested on: EKVX NSCLC
# UACC-257 melanoma = tested on: UACC-257 melanoma
# HOP-62 NSCLC = tested on: HOP-62 NSCLC
# KM12 colon = tested on: KM12 colon
# OVCAR-3 ovarian = tested on: OVCAR-3 ovarian
# BT-549 breast = tested on: BT-549 breast
# SF-539 CNS = tested on: SF-539 CNS
# UO-31 renal = tested on: UO-31 renal
# SW-620 colon = tested on: SW-620 colon
# SK-OV-3 ovarian = tested on: SK-OV-3 ovarian
# K-562 leukemia = tested on: K-562 leukemia
# HCT-116 colon = tested on: HCT-116 colon
# SN12C renal = tested on: SN12C renal
# SF-268 CNS = tested on: SF-268 CNS
# NCI/ADR-RES ovarian = tested on: NCI/ADR-RES ovarian
# T-47D breast = tested on: T-47D breast
# NCI-H460 lung = tested on: NCI-H460 lung
# TK-10 renal = tested on: TK-10 renal
# ACHN renal = tested on: ACHN renal
# MDA-MB-435 = tested on: MDA-MB-435
# SR leukemia = tested on: SR leukemia
# SK-MEL-28 melanoma = tested on: SK-MEL-28 melanoma
# OVCAR-5 ovarian = tested on: OVCAR-5 ovarian
# A498 renal = tested on: A498 renal
# SNB-75 CNS = tested on: SNB-75 CNS
# COLO 205 colon = tested on: COLO 205 colon
# UACC-62 melanoma = tested on: UACC-62 melanoma
# HS 578T breast = tested on: HS 578T breast
# HCT-15 colon = tested on: HCT-15 colon
# RPMI-8226 leukemia = tested on: RPMI-8226 leukemia
# HCC-2998 colon = tested on: HCC-2998 colon
# NCI-H522 lung = tested on: NCI-H522 lung
# SK-MEL-5 melanoma = tested on: SK-MEL-5 melanoma
# SNB-19 CNS = tested on: SNB-19 CNS
# MDA-MB-231 breast = tested on: MDA-MB-231 breast
# PC-3 prostate = tested on: PC-3 prostate
# HOP-92 NSCLC = tested on: HOP-92 NSCLC
# 786-0 renal = tested on: 786-0 renal
# MOLT-4 leukemia = tested on: MOLT-4 leukemia
# CAKI-1 renal = tested on: CAKI-1 renal
# A549 NSCLC = tested on: A549 NSCLC
# DU-145 prostate = tested on: DU-145 prostate
# M14 melanoma = tested on: M14 melanoma
# HT29 colon = tested on: HT29 colon
# CCRF-CEM leukemia = tested on: CCRF-CEM leukemia
# SK-MEL-2 melanoma = tested on: SK-MEL-2 melanoma
# NCI-H23 lung = tested on: NCI-H23 lung
# RXF 393 renal = tested on: RXF 393 renal
# MALME-3M melanoma = tested on: MALME-3M melanoma
# NCI-H226 lung = tested on: NCI-H226 lung
# HL-60(TB) leukemia = tested on: HL-60(TB) leukemia
# IGROV1 ovarian = tested on: IGROV1 ovarian
# SF-295 CNS = tested on: SF-295 CNS
# OVCAR-4 ovarian = tested on: OVCAR-4 ovarian
# LOX IMVI melanoma = tested on: LOX IMVI melanoma
structure (smiles),measurement,setting,value
COC(=O)C1=C(OC(=O)c2ccc(Cl)cc2)C(C(=O)OC)[C@@]2(O)[C@@H](C(=O)OC)C(c3ccccc3Cl)C[C@@H]1[C@@H]2C(=O)OC (stereo partly drawn),GI50,U251 CNS,3.4 µM
same,TGI,U251 CNS,27 µM
same,GI50,MCF7 breast,5.47 µM
same,TGI,MCF7 breast,> 100 µM
same,GI50,OVCAR-8 ovarian,2.61 µM
same,TGI,OVCAR-8 ovarian,12.8 µM
same,GI50,EKVX NSCLC,6.17 µM
same,TGI,EKVX NSCLC,> 100 µM
same,GI50,UACC-257 melanoma,3.52 µM
same,TGI,UACC-257 melanoma,22.4 µM
same,GI50,HOP-62 NSCLC,15.9 µM
same,TGI,HOP-62 NSCLC,> 100 µM
same,GI50,KM12 colon,2.81 µM
same,TGI,KM12 colon,50.8 µM
same,GI50,OVCAR-3 ovarian,1.76 µM
same,TGI,OVCAR-3 ovarian,5.95 µM
same,GI50,BT-549 breast,5.47 µM
same,TGI,BT-549 breast,> 100 µM
same,GI50,SF-539 CNS,12.4 µM
same,TGI,SF-539 CNS,61 µM
same,GI50,UO-31 renal,4.03 µM
same,TGI,UO-31 renal,24 µM
same,GI50,SW-620 colon,4.54 µM
same,TGI,SW-620 colon,> 100 µM
same,GI50,SK-OV-3 ovarian,19.8 µM
same,TGI,SK-OV-3 ovarian,91.9 µM
same,GI50,K-562 leukemia,6 µM
same,TGI,K-562 leukemia,> 100 µM
same,GI50,HCT-116 colon,3.17 µM
same,TGI,HCT-116 colon,> 100 µM
same,GI50,SN12C renal,4.22 µM
same,TGI,SN12C renal,31 µM
same,GI50,SF-268 CNS,5.41 µM
same,TGI,SF-268 CNS,> 100 µM
same,GI50,NCI/ADR-RES ovarian,3.41 µM
same,TGI,NCI/ADR-RES ovarian,> 100 µM
same,GI50,T-47D breast,9.39 µM
same,TGI,T-47D breast,> 100 µM
same,GI50,NCI-H460 lung,4.18 µM
same,TGI,NCI-H460 lung,> 100 µM
same,GI50,TK-10 renal,8 µM
same,TGI,TK-10 renal,> 100 µM
same,GI50,ACHN renal,3.49 µM
same,TGI,ACHN renal,> 100 µM
same,GI50,MDA-MB-435,2.06 µM
same,TGI,MDA-MB-435,4.93 µM
same,GI50,SR leukemia,8.11 µM
same,TGI,SR leukemia,> 100 µM
same,GI50,SK-MEL-28 melanoma,30.1 µM
same,TGI,SK-MEL-28 melanoma,> 100 µM
same,GI50,OVCAR-5 ovarian,55.3 µM
same,TGI,OVCAR-5 ovarian,> 100 µM
same,GI50,A498 renal,2.81 µM
same,TGI,A498 renal,13.2 µM
same,GI50,SNB-75 CNS,5.05 µM
same,TGI,SNB-75 CNS,30.3 µM
same,GI50,COLO 205 colon,23.3 µM
same,TGI,COLO 205 colon,> 100 µM
same,GI50,UACC-62 melanoma,2.21 µM
same,TGI,UACC-62 melanoma,4.81 µM
same,GI50,HS 578T breast,3.79 µM
same,TGI,HS 578T breast,> 100 µM
same,GI50,HCT-15 colon,3.04 µM
same,TGI,HCT-15 colon,> 100 µM
same,GI50,RPMI-8226 leukemia,8.79 µM
same,TGI,RPMI-8226 leukemia,> 100 µM
same,GI50,HCC-2998 colon,14.3 µM
same,TGI,HCC-2998 colon,> 100 µM
same,GI50,NCI-H522 lung,2.77 µM
same,TGI,NCI-H522 lung,7.92 µM
same,GI50,SK-MEL-5 melanoma,5.19 µM
same,TGI,SK-MEL-5 melanoma,26.5 µM
same,GI50,SNB-19 CNS,24.1 µM
same,TGI,SNB-19 CNS,> 100 µM
same,GI50,MDA-MB-231 breast,4.57 µM
same,TGI,MDA-MB-231 breast,17.5 µM
same,GI50,PC-3 prostate,37.2 µM
same,TGI,PC-3 prostate,> 100 µM
same,GI50,HOP-92 NSCLC,47.2 µM
same,TGI,HOP-92 NSCLC,> 100 µM
same,GI50,786-0 renal,7.27 µM
same,TGI,786-0 renal,> 100 µM
same,GI50,MOLT-4 leukemia,3.54 µM
same,TGI,MOLT-4 leukemia,34.6 µM
same,GI50,CAKI-1 renal,2.09 µM
same,TGI,CAKI-1 renal,7.35 µM
same,GI50,A549 NSCLC,3.16 µM
same,TGI,A549 NSCLC,> 100 µM
same,GI50,DU-145 prostate,7.46 µM
same,TGI,DU-145 prostate,> 100 µM
same,GI50,M14 melanoma,4.07 µM
same,TGI,M14 melanoma,90.1 µM
same,GI50,HT29 colon,6.57 µM
same,TGI,HT29 colon,> 100 µM
same,GI50,CCRF-CEM leukemia,4.3 µM
same,TGI,CCRF-CEM leukemia,> 100 µM
same,GI50,SK-MEL-2 melanoma,2.51 µM
same,TGI,SK-MEL-2 melanoma,5.94 µM
same,GI50,NCI-H23 lung,3.23 µM
same,TGI,NCI-H23 lung,> 100 µM
same,GI50,RXF 393 renal,2.23 µM
same,TGI,RXF 393 renal,6.96 µM
same,GI50,MALME-3M melanoma,4.85 µM
same,TGI,MALME-3M melanoma,31.7 µM
CC(=O)O[C@H]1CC[C@@]2(C)[C@@H](CC[C@@H]3[C@@H]2CC[C@]2(C)C=C(C=O)C[C@@H]32)C1,GI50,U251 CNS,2.02 µM
same,TGI,U251 CNS,4.9 µM
same,GI50,MCF7 breast,2.58 µM
same,TGI,MCF7 breast,10.8 µM
same,GI50,OVCAR-8 ovarian,2.96 µM
same,TGI,OVCAR-8 ovarian,9.59 µM
same,GI50,NCI-H226 lung,28.8 µM
same,TGI,NCI-H226 lung,> 100 µM
same,GI50,UACC-257 melanoma,12.2 µM
same,TGI,UACC-257 melanoma,26.3 µM
same,GI50,HOP-62 NSCLC,10.5 µM
same,TGI,HOP-62 NSCLC,23.1 µM
same,GI50,KM12 colon,12.7 µM
same,TGI,KM12 colon,30 µM
same,GI50,OVCAR-3 ovarian,3.1 µM
same,TGI,OVCAR-3 ovarian,9.04 µM
same,GI50,BT-549 breast,12.1 µM
same,TGI,BT-549 breast,32.3 µM
same,GI50,SF-539 CNS,3.66 µM
same,TGI,SF-539 CNS,12.7 µM
same,GI50,UO-31 renal,18.8 µM
same,TGI,UO-31 renal,35.3 µM
same,GI50,HL-60(TB) leukemia,2.2 µM
same,TGI,HL-60(TB) leukemia,5.87 µM
same,GI50,IGROV1 ovarian,3.73 µM
same,TGI,IGROV1 ovarian,14.6 µM
same,GI50,SW-620 colon,3.42 µM
same,TGI,SW-620 colon,10.7 µM
same,GI50,SK-OV-3 ovarian,9.67 µM
same,TGI,SK-OV-3 ovarian,21.7 µM
same,GI50,K-562 leukemia,3.74 µM
same,TGI,K-562 leukemia,16.5 µM
same,GI50,HCT-116 colon,1.66 µM
same,TGI,HCT-116 colon,3.42 µM
same,GI50,SN12C renal,3.42 µM
same,TGI,SN12C renal,10.6 µM
same,GI50,SF-268 CNS,3.3 µM
same,TGI,SF-268 CNS,11.2 µM
same,GI50,NCI/ADR-RES ovarian,5.35 µM
same,TGI,NCI/ADR-RES ovarian,> 100 µM
same,GI50,T-47D breast,3.74 µM
same,TGI,T-47D breast,15.5 µM
same,GI50,NCI-H460 lung,20.6 µM
same,TGI,NCI-H460 lung,42.4 µM
same,GI50,ACHN renal,20.2 µM
same,TGI,ACHN renal,60.8 µM
same,GI50,MDA-MB-435,5.01 µM
same,TGI,MDA-MB-435,19.2 µM
same,GI50,SR leukemia,3.19 µM
same,TGI,SR leukemia,9.94 µM
same,GI50,SK-MEL-28 melanoma,3.98 µM
same,TGI,SK-MEL-28 melanoma,13.5 µM
same,GI50,OVCAR-5 ovarian,13.2 µM
same,TGI,OVCAR-5 ovarian,34.4 µM
same,GI50,A498 renal,94.6 µM
same,TGI,A498 renal,> 100 µM
same,GI50,SF-295 CNS,17.4 µM
same,TGI,SF-295 CNS,36 µM
same,GI50,SNB-75 CNS,9.36 µM
same,TGI,SNB-75 CNS,22.2 µM
same,GI50,COLO 205 colon,19 µM
same,TGI,COLO 205 colon,39.2 µM
same,GI50,HS 578T breast,4.41 µM
same,TGI,HS 578T breast,50.1 µM
same,GI50,HCT-15 colon,2.26 µM
same,TGI,HCT-15 colon,12.1 µM
same,GI50,RPMI-8226 leukemia,2.74 µM
same,TGI,RPMI-8226 leukemia,8.16 µM
same,GI50,NCI-H522 lung,21.1 µM
same,TGI,NCI-H522 lung,45.6 µM
same,GI50,OVCAR-4 ovarian,3.48 µM
same,TGI,OVCAR-4 ovarian,13.8 µM
same,GI50,SK-MEL-5 melanoma,3.56 µM
same,TGI,SK-MEL-5 melanoma,14.4 µM
same,GI50,SNB-19 CNS,14.5 µM
same,TGI,SNB-19 CNS,30.8 µM
same,GI50,MDA-MB-231 breast,10.6 µM
same,TGI,MDA-MB-231 breast,27.5 µM
same,GI50,PC-3 prostate,6.53 µM
same,TGI,PC-3 prostate,27.5 µM
same,GI50,786-0 renal,19.5 µM
same,TGI,786-0 renal,37.3 µM
same,GI50,MOLT-4 leukemia,2.61 µM
same,TGI,MOLT-4 leukemia,7.33 µM
same,GI50,CAKI-1 renal,29.8 µM
same,TGI,CAKI-1 renal,98.1 µM
same,GI50,A549 NSCLC,25.8 µM
same,TGI,A549 NSCLC,> 100 µM
same,GI50,DU-145 prostate,4.75 µM
same,TGI,DU-145 prostate,15.9 µM
same,GI50,M14 melanoma,4.74 µM
same,TGI,M14 melanoma,20.8 µM
same,GI50,HT29 colon,8.32 µM
same,TGI,HT29 colon,25.6 µM
same,GI50,CCRF-CEM leukemia,2.48 µM
same,TGI,CCRF-CEM leukemia,6.75 µM
same,GI50,SK-MEL-2 melanoma,7.53 µM
same,TGI,SK-MEL-2 melanoma,23.1 µM
same,GI50,LOX IMVI melanoma,1.75 µM
same,TGI,LOX IMVI melanoma,3.54 µM
same,GI50,NCI-H23 lung,10.5 µM
same,TGI,NCI-H23 lung,31.1 µM
same,GI50,MALME-3M melanoma,3.64 µM
same,TGI,MALME-3M melanoma,12.6 µM
